In experiment [1] the test system is MEK1 phosphorylation in the A375 human melanoma cell line. The experiment in a line: cells. The following applies: A-375, read-out: pMEK IC50.
Another experiment relates to A375 cells. The experiment is described as follows: cells. To be noted: Homo sapiens, A-375, read-out: A375 Viability EC50.
Experiment [2] concerns the target RAF kinases (Homo sapiens, UniProt P04049). The experiment in a line: biochemical.
Experiment [3] deals with RAF kinases (Homo sapiens, UniProt P15056). The experiment is described as follows: biochemical.
Chain of RAF kinases (Homo sapiens, UniProt P15056) (P15056 whole entry): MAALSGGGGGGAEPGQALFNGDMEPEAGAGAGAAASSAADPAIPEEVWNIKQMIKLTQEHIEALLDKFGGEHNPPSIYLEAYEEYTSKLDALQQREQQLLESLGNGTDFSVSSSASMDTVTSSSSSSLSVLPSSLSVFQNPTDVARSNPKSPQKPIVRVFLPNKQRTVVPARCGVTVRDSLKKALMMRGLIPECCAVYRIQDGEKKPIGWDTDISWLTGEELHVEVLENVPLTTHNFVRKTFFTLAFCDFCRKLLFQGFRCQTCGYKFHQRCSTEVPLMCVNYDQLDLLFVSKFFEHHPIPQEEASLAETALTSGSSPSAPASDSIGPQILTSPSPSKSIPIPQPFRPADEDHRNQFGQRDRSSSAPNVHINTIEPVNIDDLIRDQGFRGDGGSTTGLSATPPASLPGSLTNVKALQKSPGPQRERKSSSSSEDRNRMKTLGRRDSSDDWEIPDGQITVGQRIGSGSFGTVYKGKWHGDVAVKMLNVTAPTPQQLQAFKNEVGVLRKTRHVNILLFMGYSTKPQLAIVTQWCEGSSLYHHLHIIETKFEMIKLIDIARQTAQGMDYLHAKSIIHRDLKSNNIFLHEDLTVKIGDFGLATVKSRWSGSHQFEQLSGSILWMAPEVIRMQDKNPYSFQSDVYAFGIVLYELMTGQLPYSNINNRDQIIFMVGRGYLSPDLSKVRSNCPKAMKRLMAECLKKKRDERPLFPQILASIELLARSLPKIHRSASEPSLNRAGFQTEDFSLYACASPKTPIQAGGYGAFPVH

Molecules are shown by their SMILES. Where a name gives a salt, the structure may show the parent alone.

Chain of RAF kinases (Homo sapiens, UniProt P04049) (P04049 whole entry): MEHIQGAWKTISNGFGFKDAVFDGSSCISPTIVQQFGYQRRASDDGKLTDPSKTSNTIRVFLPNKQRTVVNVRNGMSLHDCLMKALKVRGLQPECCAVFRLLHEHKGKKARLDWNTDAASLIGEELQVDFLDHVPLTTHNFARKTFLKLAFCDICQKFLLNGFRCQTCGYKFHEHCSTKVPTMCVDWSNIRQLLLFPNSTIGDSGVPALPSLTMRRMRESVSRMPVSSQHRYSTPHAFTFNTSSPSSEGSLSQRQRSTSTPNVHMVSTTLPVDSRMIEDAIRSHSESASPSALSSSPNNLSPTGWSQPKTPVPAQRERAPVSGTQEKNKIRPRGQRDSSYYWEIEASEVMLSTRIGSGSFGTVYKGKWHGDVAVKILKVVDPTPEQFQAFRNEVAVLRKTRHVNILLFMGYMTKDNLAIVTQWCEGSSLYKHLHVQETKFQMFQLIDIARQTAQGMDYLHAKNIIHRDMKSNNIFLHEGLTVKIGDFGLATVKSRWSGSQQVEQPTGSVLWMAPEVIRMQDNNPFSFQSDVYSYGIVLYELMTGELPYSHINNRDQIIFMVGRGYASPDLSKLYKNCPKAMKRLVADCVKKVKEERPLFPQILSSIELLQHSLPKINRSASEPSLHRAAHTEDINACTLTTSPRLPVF

For orientation: IC50 means the concentration needed to halve the response being measured. What is called EC50 is the concentration needed to bring the measured effect to its halfway point. A word on the Kd: it is the concentration at which binding is half-saturated. Lower therefore signals a tighter complex. For the compound `CCOc1cccc(NC(=O)Nc2cccc(Oc3ncnc4cc(OC)c(OC)cc34)c2)c1` [Ex 179, 1-(3-(6,7-dimethoxyquinazolin-4-yloxy)phenyl)-3-(3-ethoxyphenyl)urea], the half-maximal inhibitory concentration (IC50) in experiment [1] was > 1000 nM. For the same compound, the half-maximal effective concentration (EC50) in the experiment with A375 cells is > 1000 nM. The values for the equilibrium dissociation constant (Kd) at RAF kinases [2] and on RAF kinases [3] were 250 to 500 nM and 500 to 1000 nM, respectively.

On to `COc1cc2c(Oc3cccc(NC(=O)Nc4cc(C(C)(C)C)on4)c3)ncnc2cc1OCCCN1CCN(S(C)(=O)=O)CC1` [Ex 32, 1-(5-tert-butylisoxazol-3-yl)-3-(3-(6-methoxy-7-(3-(4-(methylsulfonyl)piperazin-1-yl)propoxy)quinazolin-4-yloxy)phenyl)urea], for which the IC50 in experiment [1] was < 250 nM. For the same compound, the EC50 in the experiment with A375 cells is 250 to 500 nM. Also, the Kd at RAF kinases [2] fell in the range of 250 to 500 nM; at RAF kinases [3], 500 to 1000 nM.

On to `COc1cc2ncnc(Sc3cccc(NC(=O)Nc4cc(C(C)(C)C)on4)c3)c2cc1OCCN1CCN(C)CC1` [Ex 67, 1-(5-tert-butylisoxazol-3-yl)-3-(3-(7-methoxy-6-(2-(4-methylpiperazin-1-yl)ethoxy)quinazolin-4-ylthio)phenyl)urea], for which the IC50 in experiment [1] was < 250 nM. The concentration giving a half-maximal response (EC50) in the experiment on A375 cells was > 1000 nM. Also, the dissociation constant (Kd) on RAF kinases [2] and on RAF kinases [3] was 250 to 500 nM in each case.

As to `COc1cc2ncnc(Sc3cccc(NC(=O)Nc4cc(C(C)(C)C)on4)c3)c2cc1OCCN1CCN(S(C)(=O)=O)CC1` [Ex 69, 1-(5-tert-butylisoxazol-3-yl)-3-(3-(7-methoxy-6-(2-(4-(methylsulfonyl)piperazin-1-yl)ethoxy)quinazolin-4-ylthio)phenyl)urea], the IC50 in experiment [1] is < 250 nM. In the experiment on A375 cells, the 50% effective concentration (EC50) was 250 to 500 nM. Also, the equilibrium dissociation constant (Kd) on RAF kinases [2] and on RAF kinases [3] was 250 to 500 nM each time.

In the case of `COc1cc2ncnc(Oc3cccc(NC(=O)Nc4cc(C(C)(C)C)on4)c3)c2cc1OCCN1CCOCC1` [Ex 20, 1-(5-tert-butylisoxazol-3-yl)-3-(3-(7-methoxy-6-(2-morpholinoethoxy)quinazolin-4-yloxy)phenyl)urea], in experiment [1], the IC50 was < 250 nM. In the experiment on A375 cells, the EC50 is < 250 nM. Moreover, the dissociation constant (Kd) on RAF kinases [2] and on RAF kinases [3] was 250 to 500 nM each time.

For `COc1cc2c(Sc3cccc(NC(=O)Nc4cc(C(C)(C)C)on4)c3)ncnc2cc1OCCN1CCCCC1` [Ex 80, 1-(5-tert-butylisoxazol-3-yl)-3-(3-(6-methoxy-7-(2-(piperidin-1-yl)ethoxy)quinazolin-4-ylthio)phenyl)urea], the IC50 in experiment [1] lay within 250 to 500 nM. For the same compound, the EC50 in the experiment with A375 cells is > 1000 nM. The dissociation constant Kd at RAF kinases [2] and at RAF kinases [3] was 250 to 500 nM throughout.

On to `COc1cc2c(Oc3cccc(NC(=O)Nc4cc(C(C)(C)C)on4)c3)ncnc2cc1OCCCN1CC[C@@H](O)C1` [Ex 34, (R)-1-(5-tert-Butylisoxazol-3-yl)-3-(3-(7-(3-(3-hydroxypyrrolidin-1-yl)propoxy)-6-methoxyquinazolin-4-yloxy)phenyl)urea], for which the IC50 in experiment [1] was < 250 nM. In addition, the EC50 in the experiment on A375 cells is > 1000 nM. In addition, the equilibrium dissociation constant (Kd) at RAF kinases [2] and at RAF kinases [3] was 250 to 500 nM throughout.

`CC(C)(C)c1cc(NC(=O)Nc2cccc(Sc3ncnc4ccc(OCCCN5CCS(=O)(=O)CC5)cc34)c2)no1` [Ex 90, 1-(5-tert-butyl-isoxazol-3-yl)-3-(3-{6-[3-(1,1-dioxo-thiomorpholin-4-yl)-propoxy]-quinazolin-4-ylsulfanyl}-phenyl)-urea]: the half-maximal inhibitory concentration (IC50) in experiment [1] was < 250 nM. For the same compound, in the experiment with A375 cells, the EC50 is > 1000 nM. For the same compound, the Kd on RAF kinases [2] is 250 to 500 nM; at RAF kinases [3] it was 500 to 1000 nM.

For `COCCOc1cc2ncnc(Oc3cccc(NC(=O)Nc4cc(C(C)(C)C)on4)c3)c2cc1OC` [Ex 7, 1-(5-tert-Butylisoxazol-3-yl)-3-{3-[6-methoxy-7-(2-methoxyethoxy)quinazolin-4-yloxy]phenyl}urea hydrochloride], in experiment [1], the half-maximal inhibitory concentration (IC50) was < 250 nM. For the same compound, in the experiment on A375 cells, the EC50 lay in the range of 250 to 500 nM. The Kd at RAF kinases [2] and at RAF kinases [3] was 250 to 500 nM each time.

With `COc1cc2c(Oc3cccc(NC(=O)Nc4cc(C(C)(C)C)on4)c3)ncnc2cc1OCCN1CCS(=O)(=O)CC1` [Ex 39, 1-(5-tert-butyl-isoxazol-3-yl)-3-(3-{7-[2-(1,1-dioxo-116-thiomorpholin-4-yl)-ethoxy]-6-methoxy-quinazolin-4-yloxy}-phenyl)-urea], the IC50 in experiment [1] was < 250 nM. Moreover, the EC50 with A375 cells was < 250 nM. Also, the Kd on RAF kinases [2] and at RAF kinases [3] was 250 to 500 nM in each case.

For the compound `COc1cc2ncnc(Oc3cccc(NC(=O)Nc4cc(C(C)(C)C)on4)c3)c2cc1OCCN1CCS(=O)(=O)CC1` [Ex 91, 1-(5-tert-butyl-isoxazol-3-yl)-3-(3-{6-[2-(1,1-dioxo-thiomorpholin-4-yl)-ethoxy]-7-methoxy-quinazolin-4-yloxy}-phenyl)-urea], in experiment [1], the 50% inhibitory concentration (IC50) was < 250 nM. Also, the EC50 with A375 cells was < 250 nM. The dissociation constant (Kd) at RAF kinases [2] and on RAF kinases [3] was 250 to 500 nM throughout.

In the case of `COc1cc2c(Sc3cccc(NC(=O)Nc4cc(C(C)(C)C)on4)c3)ncnc2cc1OCCCN1CCN(C)CC1` [Ex 73, 1-(5-tert-butylisoxazol-3-yl)-3-(3-(6-methoxy-7-(3-(4-methylpiperazin-1-yl)propoxy)quinazolin-4-ylthio)phenyl)urea], the IC50 in experiment [1] was < 250 nM. Also, the EC50 with A375 cells lay in the range of 500 to 1000 nM. The dissociation constant Kd at RAF kinases [2] and at RAF kinases [3] was 250 to 500 nM each time.

Turning to `COCCOc1cc2ncnc(Sc3cccc(NC(=O)Nc4cc(C(C)(C)C)on4)c3)c2cc1OCCOC` [Ex 53, 1-{3-[6,7-bis(2-methoxyethoxy)quinazolin-4-ylthio]phenyl}-3-(5-tert-butylisoxazol-3-yl)urea hydrochloride], in experiment [1], the concentration for half-maximal inhibition (IC50) was < 250 nM. The half-maximal effective concentration (EC50) with A375 cells was 500 to 1000 nM. Also, the figures for the equilibrium dissociation constant (Kd) on RAF kinases [2] and on RAF kinases [3] were 250 to 500 nM and 500 to 1000 nM, respectively.

For `COc1cc2ncnc(Sc3cccc(NC(=O)Nc4cc(C(C)(C)C)nn4C)c3)c2cc1OC` [Ex 157, 1-(3-tert-butyl-1-methyl-1H-pyrazol-5-yl)-3-(3-(6,7-dimethoxyquinazolin-4-ylthio)phenyl)urea], the 50% inhibitory concentration (IC50) in experiment [1] was < 250 nM. Further, in the experiment with A375 cells, the EC50 was > 1000 nM. Moreover, the dissociation constant (Kd) lay in the range of 250 to 500 nM on RAF kinases [2] and 500 to 1000 nM at RAF kinases [3].

As for `COc1cc2ncnc(Sc3cccc(NC(=O)Nc4cc(C(C)(C)C)on4)c3)c2cc1OCCN1CCCCC1` [Ex 65, 1-(5-tert-butylisoxazol-3-yl)-3-(3-(7-methoxy-6-(2-(piperidin-1-yl)ethoxy)quinazolin-4-ylthio)phenyl)urea], the IC50 in experiment [1] fell in the range of 250 to 500 nM. The concentration for a half-maximal effect (EC50) in the experiment on A375 cells was > 1000 nM. Also, at RAF kinases [2], the Kd lay within 500 to 1000 nM.

In the case of `COc1cc2c(Oc3cccc(NC(=O)Nc4cc(C(C)(C)C)on4)c3)ncnc2cc1OCCCN1CC[C@H](O)C1` [Ex 33, (S)-1-(5-tert-butylisoxazol-3-yl)-3-(3-(7-(3-(3-hydroxypyrrolidin-1-yl)propoxy)-6-methoxyquinazolin-4-yloxy)phenyl)urea], in experiment [1], the 50% inhibitory concentration (IC50) was < 250 nM. In the experiment with A375 cells, the EC50 was < 250 nM. Besides, the Kd at RAF kinases [2] and at RAF kinases [3] was 250 to 500 nM each time.

For the compound `CC(C)(C)c1cc(NC(=O)Nc2cccc(Oc3ncnc4ccc(-c5ccc(CNCCS(C)(=O)=O)o5)cc34)c2)no1` [Ex 92, 1-(5-tert-butylisoxazol-3-yl)-3-{3-[6-(5-{[2-(methylsulfonyl)ethylamino]methyl}furan-2-yl)quinazolin-4-yloxy]phenyl}urea], in experiment [1], the IC50 is < 250 nM. Also, the EC50 with A375 cells is < 250 nM. The Kd at RAF kinases [2] was in the range of 250 to 500 nM; on RAF kinases [3], 500 to 1000 nM.

Turning to `COc1cc2ncnc(Oc3cc(NC(=O)Nc4cc(C(C)(C)C)on4)ccc3F)c2cc1OC` [Ex 9, 1-(5-tert-butylisoxazol-3-yl)-3-(3-(6,7-dimethoxyquinazolin-4-yloxy)-4-fluorophenyl)urea], in experiment [1], the IC50 is < 250 nM. The EC50 with A375 cells was < 250 nM. This compound yielded a dissociation constant Kd at RAF kinases [2] of 500 to 1000 nM.

Consider `COc1cc2c(Oc3cccc(NC(=O)Nc4cc(C(C)(C)C)on4)c3)ncnc2cc1O[C@H]1CCN(C)C1` [Ex 97, (S)-1-(5-tert-butylisoxazol-3-yl)-3-(3-(6-methoxy-7-(1-methylpyrrolidin-3-yloxy)quinazolin-4-yloxy)phenyl)urea mono acetate], for which the 50% inhibitory concentration (IC50) in experiment [1] fell in the range of 250 to 500 nM. In addition, the EC50 with A375 cells was > 1000 nM. For the same compound, the Kd at RAF kinases [2] fell in the range of 500 to 1000 nM; at RAF kinases [3], 250 to 500 nM.

As for `COCCOc1ccc2ncnc(Oc3cccc(NC(=O)Nc4cc(C(C)(C)C)on4)c3)c2c1` [Ex 40, 1-(5-tert-butylisoxazol-3-yl)-3-(3-(6-(2-methoxyethoxy)quinazolin-4-yloxy)phenyl)urea], in experiment [1], the half-inhibitory concentration (IC50) is < 250 nM. In the experiment on A375 cells, the half-maximal effective concentration (EC50) was 500 to 1000 nM. Besides, the equilibrium dissociation constant (Kd) on RAF kinases [2] is 250 to 500 nM.

Turning to `CCOc1cc2c(Oc3cccc(NC(=O)Nc4cc(C(C)(C)C)on4)c3)ncnc2cc1OC` [Ex 11, 1-(5-tert-butylisoxazol-3-yl)-3-(3-(6-ethoxy-7-methoxyquinazolin-4-yloxy)phenyl)urea], in experiment [1], the IC50 was < 250 nM. Also, the EC50 in the experiment on A375 cells is < 250 nM. This compound also came in with a dissociation constant (Kd) at RAF kinases [2] of 500 to 1000 nM.

Consider `COc1cc2ncnc(Sc3cccc(NC(=O)Nc4cc(C(C)(C)C#N)nn4-c4ccccc4)c3)c2cc1OC` [Ex 309, 1-(3-(2-cyanopropan-2-yl)-1-phenyl-1H-pyrazol-5-yl)-3-(3-(6,7-dimethoxyquinazolin-4-ylthio)phenyl)urea], for which, in experiment [1], the IC50 is < 250 nM. Moreover, the Kd at RAF kinases [2] and on RAF kinases [3] was 500 to 1000 nM in each case.

On to `COc1cc2ncnc(Oc3cccc(NC(=O)Nc4cc(C(C)(C)C)nn4C)c3)c2cc1OC` [Ex 158, 1-(3-tert-butyl-1-methyl-1H-pyrazol-5-yl)-3-(3-(6,7-dimethoxyquinazolin-4-yloxy)phenyl)urea], for which the IC50 in experiment [1] lay within 250 to 500 nM. In the experiment with A375 cells, the EC50 is > 1000 nM. The Kd on RAF kinases [2] lay within 500 to 1000 nM.

In the case of `COc1cc2c(Oc3cccc(NC(=O)Nc4cc(C(C)(C)C)on4)c3)ncnc2cc1OCCCN1CCN(CCO)CC1` [Ex 30, 1-(5-tert-butylisoxazol-3-yl)-3-(3-(7-(3-(4-(2-hydroxyethyl)piperazin-1-yl)propoxy)-6-methoxyquinazolin-4-yloxy)phenyl)urea], the half-maximal inhibitory concentration (IC50) in experiment [1] is < 250 nM. The EC50 in the experiment with A375 cells is < 250 nM. Besides, on RAF kinases [2], the equilibrium dissociation constant (Kd) lay in the range of 250 to 500 nM.

For the origin of these results see patent US8618289B2 (Ambit Biosciences Corporation, priority 2008, dated 2013).
